Assay results published in BindingDB's records for doi:10.1021/cb400100g (University of Massachusetts Medical School, 2013).

Molecular target: Genome polyprotein (Hepatitis C virus genotype 1a (isolate H77), UniProt P27958)
Assay: Enzyme Inhibition Assay
Description: NS3/4A protease was preincubated with increasing concentration of drugs in protease reaction buffer for 1 hour. Inhibition assays were performed in a reaction volume of 60μL. The reaction was initiated by the rapid injection of 5μL of HCV NS3/4A protease substrate to a final concentration of 200nM.

Chain of Genome polyprotein (P27958 1027-1657 limits assumed): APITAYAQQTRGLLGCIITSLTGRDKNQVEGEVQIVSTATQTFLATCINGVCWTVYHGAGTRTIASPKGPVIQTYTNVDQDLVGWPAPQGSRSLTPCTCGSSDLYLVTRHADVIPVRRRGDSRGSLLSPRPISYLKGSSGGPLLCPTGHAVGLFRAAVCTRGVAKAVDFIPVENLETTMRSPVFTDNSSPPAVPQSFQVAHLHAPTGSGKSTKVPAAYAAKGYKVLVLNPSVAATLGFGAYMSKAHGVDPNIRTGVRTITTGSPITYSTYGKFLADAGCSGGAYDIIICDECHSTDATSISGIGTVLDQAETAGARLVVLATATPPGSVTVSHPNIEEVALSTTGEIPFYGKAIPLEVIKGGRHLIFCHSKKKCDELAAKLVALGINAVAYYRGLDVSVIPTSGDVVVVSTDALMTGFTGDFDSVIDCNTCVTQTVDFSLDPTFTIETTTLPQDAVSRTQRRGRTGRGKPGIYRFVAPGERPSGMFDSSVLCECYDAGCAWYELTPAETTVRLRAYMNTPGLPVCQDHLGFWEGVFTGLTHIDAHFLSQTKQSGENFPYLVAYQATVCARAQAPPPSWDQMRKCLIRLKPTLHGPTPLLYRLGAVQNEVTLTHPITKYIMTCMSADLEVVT
Chain of Genome polyprotein (P27958 1658-1711 limits assumed): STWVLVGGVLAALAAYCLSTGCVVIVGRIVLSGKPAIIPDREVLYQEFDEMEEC

For `C=C[C@@H]1C[C@]1(NC(=O)C1C[C@@H]2CN1C(=O)[C@H](C(C)(C)C)NC(=O)OCC(C)(C)CCCCc1cccc3c1CN(C3)C(=O)O2)C(=O)NS(=O)(=O)C1CC1` (stereo partly drawn) [Dan-mcP2P4], which Ki is on record?
Its Ki is 220 pM.

How did the Ki turn out when `C=C[C@@H]1C[C@]1(NC(=O)[C@@H]1CC2CN1C(=O)[C@H](C(C)(C)C)NC(=O)O[C@@H]1C[C@H]1CCCCCc1nc3ccc(OC)cc3nc1O2)C(=O)NS(=O)(=O)C1CC1` (stereo partly drawn) [MK-5172] was run?
The Ki was 60 pM.

Which Ki does the source give for `CC[C@@H]1C[C@]1(NC(=O)[C@@H]1C[C@@H]2CN1C(=O)[C@H](C(C)(C)C)NC(=O)OCC(C)(C)CCCCc1cccc3c1CN(C3)C(=O)O2)C(=O)NS(=O)(=O)C1CC1` [Vaniprevir] here?
Its Ki is 460 pM.
